Assay results reported in patent US7935349B2, “CRMP4b inhibitory peptide” (The Royal Institution for the Advancement of …, priority 2006, dated 2011).

Assays:
[1] = biological target: T1, binding between FLAG-RhoA63L and myc-ROCK (Homo sapiens, UniProt P61586, Q63L); assay: Co-immunoprecipitation of FLAG-RhoA63L and myc-ROCK in co-transfected HEK293T cells; assay type: cell-based; conditions: FIG. 7d
T1 construct: expressed in transfected cells; host or cells: HEK293T
Description: (§1) HEK 293T cells were grown to sub-confluence and transfected with Lipofectamine 2000 according to manufacturer instructions (Invitrogen, Burlington, Ontario), washed twice with ice-cold PBS and lysed in lysis buffer A (50 mM Tris, pH 7.4, 150 mM NaCl, 1 mM EDTA, 1% (v/v) Triton X-100, 1 mM Na3VO4, 1 mM NaF, 1 mM PMSF and CØmplete protease inhibitors (Roche Diagnostics, Laval, PQ)). Lysates were pre-cleared with protein A/G-agarose (Santa Cruz Biotechnology, Santa Cruz, Calif.) and subjected to immunoprecipitation with myc-agarose or V5-agarose (Sigma Chemical Co., Oakville, Ontario). After washing 3 times with ice-cold PBS, bound protein was eluted with SDS and immunoblotted with anti-Myc (9E10, 1:1000; Sigma Chemical Co., Oakville, Ontario) or anti-V5 (1:5000; Invitrogen, Burlington, Ontario). For time course experiments, PC12 cells were transfected for 24 hours using Lipofectamine 2000 (Invitrogen, Burlington, Ontario) and differentiated with 50 ng/ml nerve growth factor (NGF; Upstate Biotechnology, Waltham, Mass.) for 24 hours. Cells were treated with Nogo-P4 peptide for the indicated period of time at 37° C. Cells were then lysed and proteins were immunoprecipitated as described above.

[2] = test system: dissociated E13 chick DRG neurons; assay: Neurite outgrowth assay on laminin (control) substrate, HSV-infected neurons; assay type: cell-based; conditions: introduced via recombinant HSV, normalized to GFP-infected neurons, FIG. 8b, c
Description: (§2) For neurite outgrowth assays, myelin was dried down on poly-L-lysine-coated substrates. Substrates were washed and coated with 10 μg/ml laminin for 1 hr. For outgrowth on aggrecan, poly-L-lysine-coated substrates were coated with aggrecan and 10 μg/ml laminin for 2 hr at 37° C. Dissociated E13 chick DRG neurons were cultured in DRG media (F-12 medium. 10% FBS, 1% penicillin/streptomycin, 1% L-glutamine, 50 ng/ml NGF) in the presence of virus for 24 hours, fixed with 4% paraformaldehyde/20% sucrose in PBS and double stained with anti-βIII tubulin (Covance, Berkeley, Calif.) and anti-V5 antibody (Sigma Chemical Co. Oakville, Ontario). Neurite outgrowth lengths per cell were assessed using Image J, a public domain JAVA image processing program as previously described (Fournier et al., 2003).

[3] = biological target: T2, CRMP4a-RhoA binding (Homo sapiens, UniProt P61586); assay: CRMP-RhoA co-immunoprecipitation, CRMP4a binding to RhoA in co-transfected HEK293T cells; assay type: cell-based, rat; conditions: co-transfection with myc-RhoAWT and CRMP4-V5, myc-immunoprecipitation, FIG. 7c
T2 construct: expressed in transfected cells; host or cells: HEK293T
Description: as §1

[4] = test system: E8 chick DRG neurons; assay: Sema3A-dependent growth cone collapse assay; assay type: cell-based; conditions: HSV-infected, stimulated 20 min with AP-Sema3A ligand, FIG. 8f
Description: […] Sema3A-AP or AP conditioned media was prepared as described previously (Takahashi et al., 1998). Explants were stimulated with Sema3A-AP- or AP-conditioned media at indicated concentrations for 20 min and fixed with 4% paraformaldehyde, 20% sucrose and 0.1M NaPO4. Explants were stained with rhodamine phalloidin and assessed for growth cone collapse as described (Luo et al., 1993).

[5] = test system: dissociated E13 chick DRG neurons; assay: Neurite outgrowth assay on myelin substrate, HSV-infected neurons; assay type: cell-based; conditions: introduced via recombinant HSV, compared to GFP- or full length CRMP4b-infected neurons, FIG. 8b, d
Description: as §2

[6] = biological target: T3, CRMP4b-RhoA binding (Homo sapiens, UniProt P61586); assay: CRMP-RhoA co-immunoprecipitation, full length CRMP4b binding to RhoA in co-transfected HEK293T cells; assay type: cell-based, rat; conditions: co-transfection with myc-RhoAWT and CRMP4-V5, myc-immunoprecipitation, FIG. 7c
T3 construct: expressed in transfected cells; host or cells: HEK293T
Description: as §1

[7] = test system: dissociated E13 chick DRG neurons; assay: Neurite outgrowth assay on aggrecan substrate, HSV-infected neurons; assay type: cell-based; conditions: introduced via recombinant HSV, FIG. 8e
Description: as §2

[8] = test system: E13 chick DRG neurons; assay: Filopodia and neurite branch analysis of HSV-infected DRG growth cones; assay type: cell-based; conditions: overexpression by HSV infection
Description: E7-13 chick DRG explants were cultured in DRG media on poly-L-lysine- and laminin-coated substrates for 18 hours. For viral infections, recombinant viral preparations were added to the media 1 hour after plating. After 18 hours, cultures were treated with myelin and fixed with 4% paraformaldehyde/20% sucrose/PBS, permeabilized in 0.2% triton X-100 and double stained with polyclonal anti-RhoA antibody (Santa Cruz Biotechnology, Santa Cruz, Calif.) and anti-CRMP4b or V5 antibody. For filopodia and branch analysis, GFP and CRMP4bV5-infected growth cones were double stained with rhodamine-phalloidin (Molecular Probes, Eugene, Oreg.) and anti-V5 antibody. Filopodial length per growth cone was assessed using Image J, by measuring total filopodial length per growth cone averaged by the total number of filopodia per growth cone. Neurite branches were quantified by counting total branch buds per neurite.

T1 sequence (P61586 1-190 Q63L limits assumed): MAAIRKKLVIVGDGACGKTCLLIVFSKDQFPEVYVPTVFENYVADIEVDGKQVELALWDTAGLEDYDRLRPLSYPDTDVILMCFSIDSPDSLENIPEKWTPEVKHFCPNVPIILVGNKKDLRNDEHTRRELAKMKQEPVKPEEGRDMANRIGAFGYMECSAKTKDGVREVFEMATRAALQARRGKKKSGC
T3 sequence (P61586 1-190 limits assumed): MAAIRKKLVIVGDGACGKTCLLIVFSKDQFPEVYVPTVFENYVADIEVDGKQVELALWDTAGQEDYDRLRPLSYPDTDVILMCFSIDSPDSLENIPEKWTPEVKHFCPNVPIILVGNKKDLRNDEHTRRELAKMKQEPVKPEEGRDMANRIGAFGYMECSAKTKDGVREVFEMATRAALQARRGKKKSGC
T2 sequence (P61586 1-190 limits assumed): as above

| Substance | effect on binding between FLAG-RhoA63L and myc-ROCK [1] | basal neurite outgrowth on permissive control (laminin) substrate [2] | effect on RhoA binding to CRMP4a [3] | Sema3A-dependent growth cone collapse [4] | neurite outgrowth on myelin substrate (myelin-dependent outgrowth inhibition) [5] | effect on RhoA binding to full length CRMP4b [6] | neurite outgrowth on aggrecan [7] | branches per neurite ([8]; average (GFP-infected: 2), FIG. 5g) [branches per neurite] | filopodia length increase versus GFP-infected growth cones ([8]; average, FIG. 5e, f, g) [%] |
| --- | --- | --- | --- | --- | --- | --- | --- | --- | --- |
| C4RIP-V5: CRMP4b-RhoA Inhibitory Peptide: first 126 residues of the unique amino terminal domain of CRMP4b (SEQ ID NO: 2), fused to a V5-epitope tag | does not diminish binding between FLAG-RhoA63L and myc-ROCK | does not promote basal DRG outgrowth on permissive control substrates | without affecting binding to CRMP4a | no effect on Sema3A-dependent growth cone collapse | significantly attenuates myelin-dependent outgrowth inhibition | significantly diminishes RhoA binding to full length CRMP4b | promotes neurite outgrowth on aggrecan |  |  |
| CRMP4b-V5: full length rat CRMP4b (SEQ ID NO: 1) with V5-His tag, overexpressed via HSV or plasmid | does not affect the binding between FLAG-RhoA63L and myc-ROCK | not sufficient to mimic myelin inhibitory responses |  |  |  |  |  | 8 | 70 |
